# Literature values as cited in patent US5217965A, “Stabilized solid dosage forms of choline metal carboxymethylcellulose salicylate compositions” (Euroceltique, S.A., priority 1991, dated 1993).
# Conditions: background
compound,measurement,value
C[N+](C)(C)CCO.O=C([O-])c1ccccc1O [Choline salicylate],Hygroscopicity,highly hygroscopic
